We go through ten molecules from ChEMBL document CHEMBL1201862, “PubChem BioAssay data set” (2004).

Among the test systems are SK-MEL-2; SF-539; OVCAR-3; UACC-257; HOP-62; HCT-116; NCI-H522; OVCAR-8; SW-620; Hs-578T; COLO 205; MOLT-4; T47D; HT-29; HOP-92; KM12; HCT-15; PC-3; K562; TK-10.
Holding throughout (assay): NCI tumour cell line growth inhibition, 48 h

Each structure is given as a SMILES string.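 Interpolation was linear, between the two tested concentrations surrounding the appropriate level; five concentrations were tested over 48 hours in 96-well plates. GI50: concentration for 50% inhibition of growth.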 Activity calls are given as the source filed them. No stated cut-off is given here; in the data, active = GI50 up to about 1.1 µM and inactive = higher. A value given as a limit tells only on which side of the number the result lay.

With `Cc1ccc([N+](=O)[O-])cc1S(=O)(=O)Nc1ccc(C2=NN(C(=O)c3ccccc3)C(c3ccccc3O)C2)cc1` (stereo not given), the GI50 with SK-MEL-2 is 16.7 µM (inactive); in the test on SF-539, 17.3 µM (inactive); in the test with OVCAR-3, 17 µM (inactive); in the test on UACC-257, 17.3 µM (inactive); in the test with HOP-62, 25.3 µM (inactive); with HCT-116, 11.4 µM (inactive). For the same molecule, the GI50 was 12.6 µM (inactive) in the test with NCI-H522; 13.9 µM (inactive) with OVCAR-8; 30.9 µM (inactive) in the test with SW-620; 22.8 µM (inactive) in the test with Hs-578T; 14.3 µM (inactive) in the test on COLO 205; 13.6 µM (inactive) in the test on MOLT-4. Moreover, the GI50 in the test with T47D is 11.8 µM (inactive); with HT-29 it was 17.7 µM (inactive); in the test on HOP-92, 12 µM (inactive); in the test with KM12, 28.6 µM (inactive); with HCT-15 it was 13.2 µM; with PC-3 it was 13.2 µM (inactive). In addition, the figures for the GI50 with K562 and in the test with TK-10 were 15.3 µM (inactive) and 13.7 µM (inactive), respectively.
For `O=C1CCCc2c1c1c(n2Cc2ccccc2)-c2ccccc2C1=O`, the GI50 was 18.9 µM (inactive) in the test on SK-MEL-2; 21.1 µM (inactive) in the test on SF-539; 16 µM (inactive) with OVCAR-3; 17.3 µM (inactive) in the test on UACC-257; 25.5 µM (inactive) in the test with HOP-62; 14.4 µM (inactive) with HCT-116. Further, the GI50 with NCI-H522 was 12.3 µM (inactive); with OVCAR-8 it was 16.4 µM (inactive); with SW-620 it was 32.3 µM (inactive); in the test with Hs-578T it was 28.7 µM (inactive); in the test with COLO 205 it was 17.9 µM (inactive); in the test with T47D it was 5.93 µM (inactive). The GI50 in the test with HT-29 is 31.1 µM (inactive); in the test on HOP-92 it was 26.9 µM (inactive); in the test with KM12, 17.9 µM (inactive); in the test on HCT-15 it was 15 µM; with PC-3 it was 27.4 µM (inactive); in the test with K562 it was 13.9 µM (inactive). In addition, the GI50 with TK-10 was 10.5 µM (inactive).
Take `CCOC(=O)CSc1nc(-c2ccccc2)c(C#N)c(=O)[nH]1`: the GI50 with SK-MEL-2, in the test on SF-539, in the test with OVCAR-3, in the test on UACC-257, in the test with HOP-62 and in the test with HCT-116 was > 100 µM (inactive) in each case. For the same molecule, the GI50 in the test on NCI-H522 was 21.4 µM (inactive); in the test with OVCAR-8, > 100 µM (inactive); in the test on SW-620 it was > 100 µM (inactive); in the test on Hs-578T, > 100 µM (inactive); in the test on COLO 205, > 100 µM (inactive); in the test with MOLT-4, > 100 µM (inactive). For the same molecule, the GI50 in the test with T47D was > 100 µM (inactive); with HT-29, > 100 µM (inactive); in the test with HOP-92 it was > 100 µM (inactive); in the test on KM12, > 100 µM (inactive); with HCT-15, more than 100 µM; in the test on PC-3 it was > 100 µM (inactive). Further, the GI50 in the test on K562 and in the test with TK-10 was > 100 µM (inactive) each time.
Regarding `CCC12C=CCN3CCC4(c5cc(C(c6ccc(OC)cc6)C6Cc7ccccc7N6)c(OC)cc5N(C)C4C(O)(C(=O)OC)C1O)C32` (stereo not given), the GI50 in the test with SK-MEL-2 was 15.3 µM (inactive); in the test with SF-539, 21 µM (inactive); in the test with OVCAR-3 it was 19.2 µM (inactive); with UACC-257, 20.5 µM (inactive); in the test with HOP-62, 26.5 µM (inactive); with HCT-116, 14.4 µM (inactive). Further, the GI50 is 16.4 µM (inactive) in the test with NCI-H522; 15.1 µM (inactive) with OVCAR-8; 21.5 µM (inactive) in the test with SW-620; 63.7 µM (inactive) in the test on Hs-578T; 8.36 µM (inactive) in the test with COLO 205; 2.26 µM (inactive) in the test with MOLT-4. For the same molecule, the GI50 is 2.9 µM (inactive) in the test on T47D; 18.2 µM (inactive) with HT-29; 2.81 µM (inactive) in the test with HOP-92; 5.89 µM (inactive) in the test on KM12; 22 µM with HCT-15; 12.6 µM (inactive) with PC-3. Further, the GI50 in the test on K562 is 3.42 µM (inactive); in the test with TK-10, 22.9 µM (inactive).
In the case of `O=[N+]([O-])c1ccc(OP(=O)(O)OCC2OC(CP(=O)(O)O)C(O)C2O)cc1` (stereo not given), the GI50 in the test with SK-MEL-2, with SF-539, with OVCAR-3, in the test on UACC-257, in the test on HOP-62 and with HCT-116 was > 100 µM (inactive) in each case. Further, the GI50 in the test on NCI-H522, in the test on OVCAR-8, in the test on SW-620, in the test with Hs-578T, in the test with COLO 205 and in the test on MOLT-4 was > 100 µM (inactive) throughout. The GI50 was > 100 µM (inactive) in the test on T47D; > 100 µM (inactive) in the test on HT-29; > 100 µM (inactive) with HOP-92; > 100 µM (inactive) with KM12; more than 100 µM in the test with HCT-15; > 100 µM (inactive) in the test with PC-3. In addition, the GI50 in the test with K562 and in the test on TK-10 was > 100 µM (inactive) each time.
Turning to `CC1=NN(c2nc(N)nc(/C(C#N)=C/c3ccc([N+](=O)[O-])o3)n2)C(C)(C)C1`, the GI50 with SK-MEL-2 is 6.34 µM (inactive); in the test with SF-539, 3.22 µM (inactive); in the test on OVCAR-3 it was 3.32 µM (inactive); in the test with UACC-257, 10 µM (inactive); in the test on HOP-62, 17.2 µM (inactive); in the test with HCT-116, 1.45 µM (inactive). Further, the GI50 in the test with NCI-H522 is 1.66 µM (inactive); in the test on OVCAR-8 it was 2.51 µM (inactive); in the test with SW-620 it was 1.76 µM (inactive); in the test with Hs-578T it was 13.2 µM (inactive); in the test with COLO 205, 1.65 µM (inactive); in the test with MOLT-4, 2.26 µM (inactive). In addition, the GI50 in the test on T47D is 2.61 µM (inactive); with HT-29, 2.09 µM (inactive); with HOP-92, 1.95 µM (inactive); with KM12, 13.9 µM (inactive); with HCT-15, 1.42 µM; in the test on PC-3 it was 9.68 µM (inactive). The GI50 with K562 was 0.315 µM (active); in the test on TK-10 it was 2 µM (inactive).
As to `O=C(NNc1ccnc2cc(Cl)ccc12)/C(=C\c1ccccc1Cl)NC(=O)c1ccccc1`, the GI50 is 19.4 µM (inactive) with SK-MEL-2; 27.7 µM (inactive) in the test on SF-539; 16.5 µM (inactive) in the test with OVCAR-3; 34.1 µM (inactive) in the test with UACC-257; 19.2 µM (inactive) with HOP-62; 42.7 µM (inactive) with HCT-116. For the same molecule, the GI50 is 18.5 µM (inactive) in the test on NCI-H522; 20 µM (inactive) with OVCAR-8; 37.9 µM (inactive) with SW-620; 32.5 µM (inactive) in the test with Hs-578T; 25.2 µM (inactive) in the test on COLO 205; 32.2 µM (inactive) in the test on T47D. Also, the GI50 in the test with HT-29 was 47.8 µM (inactive); in the test on HOP-92, 35.6 µM (inactive); in the test on KM12 it was 20.5 µM (inactive); in the test with HCT-15 it was 48.4 µM; in the test with PC-3, 36.1 µM (inactive); with K562 it was 34.6 µM (inactive). For the same molecule, the GI50 in the test with TK-10 is 66.1 µM (inactive).
For the molecule `COC(=O)c1sc(=S)sc1SCc1ccc(CSc2sc(=S)sc2C(=O)OC)cc1`, the GI50 in the test with SK-MEL-2, in the test with OVCAR-3, in the test on UACC-257, in the test with HOP-62, in the test with HCT-116 and in the test with NCI-H522 was > 100 µM (inactive) each time. For the same molecule, the GI50 in the test with OVCAR-8, in the test on SW-620, in the test on Hs-578T, in the test on COLO 205, in the test on MOLT-4 and in the test with T47D was > 100 µM (inactive) in each case. The GI50 was > 100 µM (inactive) in the test on HT-29; > 100 µM (inactive) in the test with HOP-92; > 100 µM (inactive) with KM12; more than 100 µM in the test with HCT-15; > 100 µM (inactive) in the test with PC-3; > 100 µM (inactive) in the test with K562. Further, the GI50 in the test on TK-10 is > 100 µM (inactive).
For `COc1ccc2c(-c3ccc(O)cc3)c(Oc3ccccc3)c(=O)oc2c1`, the GI50 was > 100 µM (inactive) in the test with SK-MEL-2; 24.7 µM (inactive) in the test on SF-539; 5.4 µM (inactive) with OVCAR-3; > 100 µM (inactive) in the test on UACC-257; 31.1 µM (inactive) with HOP-62; > 23.2 µM (inactive) with HCT-116. The GI50 in the test on NCI-H522 was 8.2 µM (inactive); in the test on OVCAR-8 it was 16.2 µM (inactive); in the test on Hs-578T, > 50 µM (inactive); in the test with COLO 205 it was > 100 µM (inactive); with MOLT-4, 5.11 µM (inactive); in the test with T47D, > 28 µM (inactive). In addition, the GI50 with HT-29 was 11.7 µM (inactive); in the test on HOP-92, 12 µM (inactive); in the test with KM12, 14.6 µM (inactive); in the test on HCT-15 it was 5.04 µM; in the test with PC-3, > 66.5 µM (inactive); in the test on K562, 8.91 µM (inactive). For the same molecule, in the test with TK-10, the GI50 is 3.74 µM (inactive).
For the molecule `O=C1NC(=O)C(c2c[nH]c3ccccc23)=C1c1cn(C(c2ccccc2)(c2ccccc2)c2ccccc2)cn1`, the GI50 with SK-MEL-2 is 11.2 µM (inactive); in the test on SF-539, 15.4 µM (inactive); with OVCAR-3, 6.76 µM (inactive); with UACC-257, 11.2 µM (inactive); with HCT-116 it was 3.34 µM (inactive); with NCI-H522 it was 8.75 µM (inactive). Also, the GI50 was 5.33 µM (inactive) with OVCAR-8; 8.81 µM (inactive) in the test with SW-620; 20.8 µM (inactive) with Hs-578T; 3.73 µM (inactive) in the test on COLO 205; 2.48 µM (inactive) in the test on MOLT-4; 7.19 µM (inactive) in the test with T47D. Besides, the GI50 in the test with HT-29 was 4.06 µM (inactive); in the test on HOP-92 it was 7.13 µM (inactive); in the test on KM12 it was 4.06 µM (inactive); in the test on HCT-15, 3.66 µM; in the test on PC-3, 2.58 µM (inactive); in the test with K562, 4.2 µM (inactive). Besides, the GI50 in the test on TK-10 was 10.7 µM (inactive).
